# Measurements: publication PMC7464785 (Pharmaceutics, 2020)
# Values joined by “and” are separate entries in the source; they are usually repeats but may differ in a detail not shown here. Equal values may be shown once. Read-outs that look alike come from different tables or passages of the source.
# Experiments:
# [1] = Pharmacokinetics after oral administration to control, G-ARF and C-ARF rats; assay type: in vivo, Sprague–Dawley rats; conditions: for CL renal: read-out: CLR (time-averaged renal clearance); for bioavailability: read-out: F (absolute oral bioavailability)
# Method: Rats were randomly divided into three groups: control, G-ARF, and C-ARF rats. Acute renal failure was induced in rats by intraperitoneal injection of gentamicin (100 mg/kg, dissolved in 0.9% NaCl-injectable solution) daily for 8 days or by a single intraperitoneal injection of cisplatin (7.5 mg/kg, dissolved in 0.9% NaCl-injectable solution), while control rats were injected with 0.9% NaCl-injectable solution only. […] BUN (Blood urea nitrogen) levels were measured in rats on the last day of induction using a BUN detection kit (Asan Pharmaceutical, Seoul, Korea). Rats with a urea nitrogen level of 36 mg/dL or higher were considered to be acute renal failure-induced and were selected for the study.
# For oral and intravenous administration, pretreatment and surgical procedures were performed as previously reported. For oral study, the rats were restricted from eating food overnight but water was freely accessible. The next day, after anesthesia with ketamine at a dose of 100 mg/kg, polyethylene 50 tubes (Clay Adams, Parsippany, NJ, USA) was cannulated into the carotid artery for blood collection. For intravenous study, polyethylene 50 tubes were cannulated into the carotid artery and jugular vein for blood collection and drug administration, respectively. After surgery, rats were allowed to rest for 2–3 h to recover from anesthesia and were free in the individual metabolic cage during the experiment.
# Blood samples (110 µL) were collected through the carotid artery at 0 (prior to drug administration), 5, 15, 30, 45, 60, 90, 120, 180, 240, 360, 480, 600, and 720 min. At 24 h after drug administration, urine and gastrointestinal tract samples were collected and handled similarly to those in the intravenous study.
# A 50-μL aliquot of biological sample was mixed with 1 μL hydrocortisone (5 mg/mL); then, 20 μL of 20% ammonia solution was added, mixed with a vortex-mixer (Scientific Industries, Bohemia, NY, USA) for 30 s, and extracted with 750 µL ethyl acetate. The organic layer was collected, evaporated on a thermobath (Eyela, Tokyo, Japan) under a gentle stream of nitrogen gas at 40 °C and redissolved by adding 130 µL 20% acetonitrile, and 50 µL of each reconstituted sample was analyzed by HPLC [12, 22].
# The reconstituted biological samples were filtered through a 0.45-µm filter (Millipore, Billerica, MA, USA) and analyzed with a reversed-phase column (C18; 25 cm × 4.6 mm, 5 µm; Young Jin Biochrom, Seongnam, Korea) using a UV detector at 287 nm. The mobile phase consisted of 10 mM ammonium acetate buffer (pH 5.0) and acetonitrile at a ratio of 69.5:30.5 (v/v) with a flow rate of 1.0 mL/min.
# To estimate pharmacokinetic parameters such as terminal half-life, the apparent volume of distribution at steady state (Vss), area under plasma concentration-time curves from time zero to time infinity (AUC), mean residence time (MRT), and time-averaged total body (CL), and renal (CLR) and nonrenal (CLNR) clearances, standard methods were applied using noncompartmental analysis (WinNonlin, Pharsight Corporation, Mountain View, CA, USA). AUCs were calculated using the trapezoidal rule-extrapolation method. The peak plasma concentration (Cmax) and time that the plasma concentration was peak (Tmax) were directly confirmed from plasma concentration-time curves. To calculate the average values of clearances, terminal half-life, and Vss, the harmonic mean method was applied.
# plasma proteins [2] = test: Plasma protein binding by equilibrium dialysis; assay type: in vitro ADME; conditions: plasma from control, G-ARF and C-ARF rats; data not shown
# [3] = intravenous doses over 20 mg/kg and oral doses over 50 mg/kg; cited from earlier work
# [4] = cited from earlier work
# plasma proteins [5] = conditions: equilibrium dialysis; cited from earlier work
# [6] = Sprague-Dawley, rat, plasma, po, 20 mg/kg, C-ARF rats
# [7] = Sprague-Dawley, rat, plasma, po, 20 mg/kg, G-ARF rats
# [8] = Sprague-Dawley, rat, plasma, po, 20 mg/kg, control rats
# [9] = control rats, oral 20 mg/kg, 20 mg/kg
structure (smiles),measurement,setting,value
"C[C@@H]1CCN(C(=O)CC#N)C[C@@H]1N(C)c1ncnc2[nH]ccc12 [tofacitinib, Tofacitinib]",Ae0–24 h (dose excreted in the 24-h urine),"[1]; C-ARF rats, oral 20 mg/kg",1.16 ± 1.37 % of dose
same,decrease of Ae0–24 h versus control rats,"[1]; C-ARF rats, oral 20 mg/kg",81.3%
same,increase of AUC versus control rats,"[1]; C-ARF rats, oral 20 mg/kg",247%
same,increase of Cmax versus control rats,"[1]; C-ARF rats, oral 20 mg/kg",141%
same,GI24 h (dose remaining in the gastrointestinal tract at 24 h),"[1]; C-ARF rats, oral 20 mg/kg, 20 mg/kg",0.505 % of dose and 0.505 ± 0.535 % of dose
same,Ae0–24 h (dose excreted in the 24-h urine),"[1]; G-ARF rats, oral 20 mg/kg",4.82 ± 3.06 % of dose
same,decrease of Ae0–24 h versus control rats,"[1]; G-ARF rats, oral 20 mg/kg",22.4%
same,decrease of CLR versus control rats,"[1]; G-ARF rats, oral 20 mg/kg",69.8%
same,increase of AUC versus control rats,"[1]; G-ARF rats, oral 20 mg/kg",142%
same,increase of Cmax versus control rats,"[1]; G-ARF rats, oral 20 mg/kg",198%
same,GI24 h (dose remaining in the gastrointestinal tract at 24 h),"[1]; G-ARF rats, oral 20 mg/kg, 20 mg/kg",1.27 % of dose and 1.27 ± 1.72 % of dose
same,AUC,[1]; [6],12500 ng·h/mL
same,Tmax,[1]; [6],41.3 min
same,CL renal,[1]; [6],0.3 ± 0.495 mL/min/kg
same,Cmax,"[1]; Sprague-Dawley, rat, plasma, po, 20 mg/kg, C-ARF rats, read-out: Cmax",4200 ± 3030 ng/mL
same,bioavailability,[1]; [6],54.3%
same,AUC,[1]; [7],8750 ng·h/mL
same,Tmax,[1]; [7],30.8 min
same,CL renal,[1]; [7],1.71 ± 0.871 mL/min/kg
same,Cmax,"[1]; Sprague-Dawley, rat, plasma, po, 20 mg/kg, G-ARF rats, read-out: Cmax",5180 ± 2590 ng/mL
same,bioavailability,[1]; [7],60.7%
same,AUC,[1]; [8],3620 ng·h/mL
same,Tmax,[1]; [8],71.9 min
same,CL renal,[1]; [8],5.66 ± 1.03 mL/min/kg
same,bioavailability,[1]; [8],41.3%
same,GI24 h,"[1]; across control, G-ARF and C-ARF rats, oral 20 mg/kg",less than 1.27 % of oral dose
same,Cmax,"[1]; control rats, oral 20 mg/kg",1740 ± 606 ng/mL
same,Ae0–24 h (dose excreted in the 24-h urine),[1]; [9],6.21 % of dose and 6.21 ± 1.12 % of dose
same,GI24 h (dose remaining in the gastrointestinal tract at 24 h),[1]; [9],0.231 % of dose and 0.231 ± 0.235 % of dose
same,"free fractions in the plasma, comparison of groups",plasma proteins [2],comparable
same,dose proportionality of AUCs,[3],not dose proportional
same,half-life,"[4]; healthy volunteers, oral 10 mg",192 min
same,oral dose bound to plasma protein,"[4]; healthy volunteers, oral 10 mg",Approximately 40%
same,volume of distribution,"[4]; healthy volunteers, oral 10 mg",87 L
same,Absolute oral bioavailability (F),[4]; human,approximately 74%
same,plasma protein binding,plasma proteins [5],20.7%
